Experimental data taken from PMC7115587 (European Journal of Medicinal Chemistry, 2014).

Columns and labels:
[1] = system: CQ resistant W2 strain of P. falciparum; test: In vitro antimalarial activity; format: cell-based, Plasmodium falciparum
[2] = system: HCT116 (colon cancer cell line) cells; test: In vitro cytotoxicity

Row | Structure (SMILES) | antimalarial activity (in words) [1] | cytotoxicity (in words) [2]
1 | O=C1C(=O)N(CC(CO)NCCNc2ccnc3cc(Cl)ccc23)c2ccccc21 (stereo not drawn) [Compound 11a, 1-{2-[2-(7-Chloro-quinolin-4-ylamino)-ethylamino]-3-hydroxy-propyl}-1H-indole-2,3-dione] | better activity than chloroquine | 
2 | O=C1C(=O)N(CC(CO)NCCNc2ccnc3cc(Cl)ccc23)c2ccc(Cl)cc21 (stereo not drawn) [Compound 11b, 5-Chloro-1-{2-[2-(7-Chloro-quinolin-4-ylamino)-ethylamino]-3-hydroxy-propyl}-1H-indole-2,3-dione] |  | devoid of any cytotoxicity
3 | O=C1C(=O)N(CC(CO)NCCCNc2ccnc3cc(Cl)ccc23)c2ccc(Cl)cc21 (stereo not drawn) [Compound 11f, 5-Chloro-1-{2-[3-(7-Chloro-quinolin-4-ylamino)-propylamino]-3-hydroxy-propyl}-1H-indole-2,3-dione] |  | devoid of any cytotoxicity
